Data published in patent US20230151003A1, “COMPOUNDS AND METHODS OF USE” (Exelixis, Inc., priority 2020, published 2023).
Structures can show the parent of a compound that is named as a salt.

Assays:
Met = Met (Homo sapiens, UniProt P08581); experiment: Met autophosphorylation ELISA in PC-3 cells; format: cell-based; parameters: endogenous in cells; host or cells: PC-3 prostate cancer cells (ATCC #CRL-1435); conditions: Table 3 Cellular Activities, HGF-stimulated, phospho-Met ELISA, read-out: c-Met IC50
Met, sequence (P08581 25-1390): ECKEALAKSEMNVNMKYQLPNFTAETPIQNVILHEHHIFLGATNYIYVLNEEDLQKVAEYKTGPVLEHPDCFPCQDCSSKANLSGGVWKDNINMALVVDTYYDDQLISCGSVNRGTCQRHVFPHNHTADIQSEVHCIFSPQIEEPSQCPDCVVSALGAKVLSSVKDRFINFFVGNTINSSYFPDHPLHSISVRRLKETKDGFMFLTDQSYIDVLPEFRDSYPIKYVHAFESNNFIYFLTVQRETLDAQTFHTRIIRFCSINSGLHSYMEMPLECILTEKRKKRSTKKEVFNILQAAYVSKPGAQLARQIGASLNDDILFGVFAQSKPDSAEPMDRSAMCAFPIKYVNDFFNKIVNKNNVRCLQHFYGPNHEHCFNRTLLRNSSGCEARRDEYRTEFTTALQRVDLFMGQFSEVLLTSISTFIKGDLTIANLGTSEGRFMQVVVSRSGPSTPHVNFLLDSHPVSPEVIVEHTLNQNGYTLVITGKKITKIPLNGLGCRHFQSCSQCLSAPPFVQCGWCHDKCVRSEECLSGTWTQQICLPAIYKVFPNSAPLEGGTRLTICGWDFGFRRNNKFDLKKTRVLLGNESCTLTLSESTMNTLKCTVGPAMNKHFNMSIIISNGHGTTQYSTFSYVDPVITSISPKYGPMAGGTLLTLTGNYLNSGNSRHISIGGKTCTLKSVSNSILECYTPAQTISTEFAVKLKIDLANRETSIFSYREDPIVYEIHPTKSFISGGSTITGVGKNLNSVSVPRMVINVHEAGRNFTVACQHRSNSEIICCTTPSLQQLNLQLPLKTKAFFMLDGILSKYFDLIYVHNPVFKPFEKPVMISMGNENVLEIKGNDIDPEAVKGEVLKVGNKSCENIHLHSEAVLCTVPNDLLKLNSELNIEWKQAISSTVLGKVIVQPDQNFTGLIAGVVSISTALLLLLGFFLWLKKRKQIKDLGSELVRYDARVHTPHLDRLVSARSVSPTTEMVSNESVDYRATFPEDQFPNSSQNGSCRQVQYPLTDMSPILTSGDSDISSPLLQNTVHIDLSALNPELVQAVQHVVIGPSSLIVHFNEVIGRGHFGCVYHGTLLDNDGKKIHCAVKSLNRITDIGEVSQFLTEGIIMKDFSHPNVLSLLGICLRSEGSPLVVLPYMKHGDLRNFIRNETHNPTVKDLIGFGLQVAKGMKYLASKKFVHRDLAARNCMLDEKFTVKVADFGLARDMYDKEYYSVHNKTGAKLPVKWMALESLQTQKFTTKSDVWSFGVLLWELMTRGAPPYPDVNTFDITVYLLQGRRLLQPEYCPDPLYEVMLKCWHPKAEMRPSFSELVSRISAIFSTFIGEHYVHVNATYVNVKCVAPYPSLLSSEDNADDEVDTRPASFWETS
Method in brief: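 Serum-starved (3 h) PC-3 cells pre-incubated 1 h with compound (8-point dose curve, 0.3% DMSO), then stimulated with 100 ng/mL recombinant human HGF for 10 min. Lysate phospho-Met (panTyr) measured by sandwich ELISA; IC50 from 4-parameter logistic fit, normalised to DMSO (100%) and reference-inhibitor (0%) controls.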

AXL = biological target: T1, AXL (Homo sapiens, UniProt P30530); experiment: AXL autophosphorylation ELISA in A-172 cells; format: cell-based; conditions: Table 3 Cellular Activities, Gas6-stimulated, phospho-AXL ELISA
T1 construct: endogenous in cells; host or cells: A-172 glioblastoma cells (ATCC #CRL-1620)
T1 sequence (P30530 26-894): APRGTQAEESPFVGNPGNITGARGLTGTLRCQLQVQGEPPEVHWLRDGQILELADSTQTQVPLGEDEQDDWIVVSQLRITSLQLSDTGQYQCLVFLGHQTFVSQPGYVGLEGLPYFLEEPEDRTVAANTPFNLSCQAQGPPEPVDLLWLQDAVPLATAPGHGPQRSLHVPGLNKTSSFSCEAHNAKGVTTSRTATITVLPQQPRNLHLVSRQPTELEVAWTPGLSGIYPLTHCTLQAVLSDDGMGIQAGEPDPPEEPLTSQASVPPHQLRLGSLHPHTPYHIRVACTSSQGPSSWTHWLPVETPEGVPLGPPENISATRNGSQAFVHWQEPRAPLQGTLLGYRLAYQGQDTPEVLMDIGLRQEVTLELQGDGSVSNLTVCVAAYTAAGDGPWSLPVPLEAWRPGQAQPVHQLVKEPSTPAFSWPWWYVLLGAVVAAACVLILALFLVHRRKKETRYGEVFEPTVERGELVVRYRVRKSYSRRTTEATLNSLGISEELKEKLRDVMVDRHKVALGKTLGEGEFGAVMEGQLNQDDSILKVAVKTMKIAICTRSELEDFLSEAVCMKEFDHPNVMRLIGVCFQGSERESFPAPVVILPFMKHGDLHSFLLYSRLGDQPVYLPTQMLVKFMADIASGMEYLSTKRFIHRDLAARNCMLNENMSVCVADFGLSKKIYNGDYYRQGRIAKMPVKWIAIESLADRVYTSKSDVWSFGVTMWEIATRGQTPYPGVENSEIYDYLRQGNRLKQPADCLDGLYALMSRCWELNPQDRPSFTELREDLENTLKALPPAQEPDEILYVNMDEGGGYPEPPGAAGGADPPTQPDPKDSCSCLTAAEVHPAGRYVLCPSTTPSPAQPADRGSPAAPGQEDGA
Protocol: A-172 glioblastoma cells (ATCC #CRL-1620) were seeded at 2.5×10^5 cells/well onto 24-well plates (Greiner #662165), in DMEM (Thermo Fisher #11995-040) containing 10% FBS (Thermo Fisher #26140-079), 1% MEM NEAA (Thermo Fisher #11140-050), 1% GlutaMax (Thermo Fisher #35050-061), and 1% Penicillin Streptomycin (Thermo Fisher #15140-122). A-172 cells were incubated at 37° C., 5% CO2 for 24 h and then starved for 24 h in serum-free medium. Test compounds were serially diluted to produce an 8-point dose curve in fresh serum-free medium to a final concentration of 0.3% DMSO (vehicle) and added to the cells and incubated for 1 h. Cells were then stimulated with 1 μg/mL recombinant human Gas6 (R&D Systems #885-GSB-500) for 15 min, washed with cold PBS, and immediately lysed with 150 μL of cold 1× lysis buffer [20 mM Tris, 137 mM sodium chloride, 2 mM EDTA, 10% glycerol, 1% NP-40 alternative, 1 mM activated sodium orthovanadate, 1 mM PefaBloc SC (Sigma-Aldrich #11429868001), protease/phosphatase inhibitor tablet (Thermo Fisher #A32959)]. Lysates were collected and 100 μL/well added into the human phospho-AXL DuoSet IC ELISA (R&D Systems #DYC2228-2). Assay was performed according to manufacturer's instructions and sample phospho-AXL concentrations were extrapolated using human phospho-AXL control (R&D Systems #841645) as a standard. Positive control wells (100% activity) contained Gas6-stimulated, DMSO-treated cell lysates. Negative control wells (0% activity) contained Gas6-stimulated, reference inhibitor-treated cell lysates. IC50 values were calculated by nonlinear regression analysis using a 4-parameter logistic curve fit in ActivityBase XE (IDBS).

Q: Which IC50 (Met) does the source give for `COc1cc2c(Oc3ccc(NC(=O)c4c(C)ncc(-c5ccccn5)c4O)cc3F)ccnc2cn1` [Compound 223, N-[3-Fluoro-4-[(6-methoxy-1,7-naphthyridin-4-yl)oxy]phenyl]-4-hydroxy-2-methyl-5-pyridin-2-ylpyridine-3-carboxamide] here?
A: ≤ 100 nM

Q: And the IC50 (AXL)?
A: ≤ 100 nM

Q: How did the IC50 (Met) turn out when `COc1cc2nccc(Oc3ccc(NC(=O)c4c(C)nc(C)c(-c5ccc(F)cn5)c4O)cc3)c2nc1OC` [Compound 216, N-[4-[(6,7-Dimethoxy-1,5-naphthyridin-4-yl)oxy]phenyl]-5-(5-fluoropyridin-2-yl)-4-hydroxy-2,6-dimethylpyridine-3-carboxamide] was run?
A: ≤ 100 nM

Q: And the IC50 (AXL)?
A: ≤ 100 nM

Q: How did the IC50 (Met) turn out when `Cc1ccc(C(=O)Nc2ccc(Oc3ccnc4cccnc34)c(F)c2)c(=O)n1-c1ccc(F)cn1` [Compound 48, N-[3-Fluoro-4-(1,5-naphthyridin-4-yloxy)phenyl]-1-(5-fluoropyridin-2-yl)-6-methyl-2-oxopyridine-3-carboxamide] was run?
A: ≤ 100 nM

Q: What about the IC50 (AXL) of the same molecule?
A: ≤ 100 nM

Q: How did the IC50 (Met) turn out when `COc1cc2nccc(Oc3ccc(NC(=O)c4cnc(C)c(-c5ccc(F)cn5)c4O)cc3F)c2nc1OC` [Compound 85, N-[4-[(6,7-Dimethoxy-1,5-naphthyridin-4-yl)oxy]-3-fluorophenyl]-5-(5-fluoropyridin-2-yl)-4-hydroxy-6-methylpyridine-3-carboxamide] was run?
A: ≤ 100 nM

Q: And the IC50 (AXL)?
A: ≤ 100 nM

Q: Which IC50 (Met) does the source give for `COc1cc2nccc(Oc3ccc(NC(=O)c4cc(C(C)=O)c(C)n(-c5ccco5)c4=O)cc3F)c2nc1OC` [Compound 236, 5-Acetyl-N-[4-[(6,7-dimethoxy-1,5-naphthyridin-4-yl)oxy]-3-fluorophenyl]-1-(furan-2-yl)-6-methyl-2-oxopyridine-3-carboxamide] here?
A: 300 to 1000 nM

Q: What about the IC50 (AXL) of the same molecule?
A: ≤ 100 nM

Q: With `COc1cc2nccc(Oc3ccc(NC(=O)c4ccc(C)n(-c5ncc(F)cc5C)c4=O)cc3F)c2nc1OC` [Compound 51, N-[4-[(6,7-Dimethoxy-1,5-naphthyridin-4-yl)oxy]-3-fluorophenyl]-1-(5-fluoro-3-methylpyridin-2-yl)-6-methyl-2-oxopyridine-3-carboxamide] as the molecule, how does the IC50 (Met) read?
A: ≤ 100 nM

Q: And the IC50 (AXL)?
A: ≤ 100 nM

Q: Which results are given for `COc1ccc2nccc(Oc3ccc(NC(=O)c4ccc(C)n(-c5ncc(F)cc5C)c4=O)cc3F)c2n1` [Compound 53, N-[3-Fluoro-4-[(6-methoxy-1,5-naphthyridin-4-yl)oxy]phenyl]-1-(5-fluoro-3-methylpyridin-2-yl)-6-methyl-2-oxopyridine-3-carboxamide]?
A: IC50 (Met): ≤ 100 nM; IC50 (AXL): ≤ 100 nM

Q: Which IC50 (Met) does the source give for `COc1cc2nccc(Oc3ccc(NC(=O)c4c(C)ncc(-c5ccccn5)c4O)cc3F)c2nc1OC` [Compound 69, N-[4-[(6,7-Dimethoxy-1,5-naphthyridin-4-yl)oxy]-3-fluorophenyl]-4-hydroxy-2-methyl-5-pyridin-2-ylpyridine-3-carboxamide] here?
A: ≤ 100 nM

Q: What about the IC50 (AXL) of the same molecule?
A: ≤ 100 nM

Q: What does the source list for `COc1cc2nccc(Oc3ccc(NC(=O)c4c5n(cc(-c6cccs6)c4=O)CCOC5)cc3)c2nc1OC` [Compound 299, N-[4-[(6,7-Dimethoxy-1,5-naphthyridin-4-yl)oxy]phenyl]-8-oxo-7-thiophen-2-yl-3,4-dihydro-1H-pyrido[2,1-c][1,4]oxazine-9-carboxamide]?
A: IC50 (Met): ≤ 100 nM; IC50 (AXL): ≤ 100 nM

Q: With `COc1cc2nccc(Oc3ccc(NC(=O)c4ccc(C)n(-c5ccncc5F)c4=O)cc3F)c2nc1OC` [Compound 220, N-[4-[(6,7-Dimethoxy-1,5-naphthyridin-4-yl)oxy]-3-fluorophenyl]-1-(3-fluoropyridin-4-yl)-6-methyl-2-oxopyridine-3-carboxamide] as the molecule, how does the IC50 (Met) read?
A: ≤ 100 nM

Q: What about the IC50 (AXL) of the same molecule?
A: ≤ 100 nM

Q: What does the source list for `COc1cc2nccc(Oc3ccc(NC(=O)c4cnc(C)c(-c5ccco5)c4O)cc3F)c2cc1OC` [Compound 259, N-[4-(6,7-Dimethoxyquinolin-4-yl)oxy-3-fluorophenyl]-5-(furan-2-yl)-4-hydroxy-6-methylpyridine-3-carboxamide]?
A: IC50 (Met): ≤ 100 nM; IC50 (AXL): ≤ 100 nM

Q: What does the source list for `COc1cc2nccc(Oc3ccc(NC(=O)c4ncc(C)n(-c5ccc(F)cn5)c4=O)cc3F)c2nc1OC` [Compound 219, N-[4-[(6,7-Dimethoxy-1,5-naphthyridin-4-yl)oxy]-3-fluorophenyl]-4-(5-fluoropyridin-2-yl)-5-methyl-3-oxopyrazine-2-carboxamide]?
A: IC50 (Met): ≤ 100 nM; IC50 (AXL): ≤ 100 nM

Q: For `COc1cc2nccc(Oc3ccc(NC(=O)c4c(C)ncc(-c5ncc(F)cc5C)c4O)cc3F)c2nc1OC` [Compound 200, N-[4-[(6,7-Dimethoxy-1,5-naphthyridin-4-yl)oxy]-3-fluorophenyl]-5-(5-fluoro-3-methylpyridin-2-yl)-4-hydroxy-2-methylpyridine-3-carboxamide], which IC50 (Met) is on record?
A: ≤ 100 nM

Q: And the IC50 (AXL)?
A: ≤ 100 nM

Q: What does the source list for `COc1cnc2c(Oc3ccc(NC(=O)c4cc(C(C)=O)c(C)n(-c5ccco5)c4=O)cc3F)ccnc2c1` [Compound 238, 5-Acetyl-N-[3-fluoro-4-[(7-methoxy-1,5-naphthyridin-4-yl)oxy]phenyl]-1-(furan-2-yl)-6-methyl-2-oxopyridine-3-carboxamide]?
A: IC50 (Met): 300 to 1000 nM; IC50 (AXL): 100 to 300 nM

Q: For `COc1cc2nccc(Oc3ccc(NC(=O)c4c(C)n(C)cc(-c5ccc(F)cn5)c4=O)cc3)c2nc1OC` [Compound 72, N-[4-[(6,7-Dimethoxy-1,5-naphthyridin-4-yl)oxy]phenyl]-5-(5-fluoropyridin-2-yl)-1,2-dimethyl-4-oxopyridine-3-carboxamide], which IC50 (Met) is on record?
A: ≤ 100 nM

Q: What about the IC50 (AXL) of the same molecule?
A: ≤ 100 nM

Q: With `COc1cc2nccc(Oc3ccc(NC(=O)c4c5n(cc(-c6ccoc6)c4=O)CCOC5)cc3)c2nc1OC` [Compound 310, N-[4-[(6,7-Dimethoxy-1,5-naphthyridin-4-yl)oxy]phenyl]-7-(furan-3-yl)-8-oxo-3,4-dihydro-1H-pyrido[2,1-c][1,4]oxazine-9-carboxamide] as the molecule, how does the IC50 (Met) read?
A: 300 to 1000 nM

Q: What about the IC50 (AXL) of the same molecule?
A: ≤ 100 nM

Q: What does the source list for `COc1cc2nccc(Oc3ccc(NC(=O)c4ccc(C)n(-c5ccc(F)c(C)n5)c4=O)cc3F)c2nc1OC` [Compound 227, N-[4-[(6,7-Dimethoxy-1,5-naphthyridin-4-yl)oxy]-3-fluorophenyl]-1-(5-fluoro-6-methylpyridin-2-yl)-6-methyl-2-oxopyridine-3-carboxamide hydrochloride]?
A: IC50 (Met): ≤ 100 nM; IC50 (AXL): ≤ 100 nM

Q: What does the source list for `COc1cc2nccc(Oc3ccc(NC(=O)c4c(C)ccn(-c5ccc(F)cn5)c4=O)cc3F)c2nc1OC` [Compound 41, N-[4-[(6,7-Dimethoxy-1,5-naphthyridin-4-yl)oxy]-3-fluorophenyl]-1-(5-fluoropyridin-2-yl)-4-methyl-2-oxopyridine-3-carboxamide]?
A: IC50 (Met): ≤ 100 nM; IC50 (AXL): ≤ 100 nM

Q: With `COc1cnc2c(Oc3ccc(NC(=O)c4ccc(C)n(-c5ncc(F)cc5C)c4=O)cc3F)ccnc2c1` [Compound 52, N-[3-Fluoro-4-[(7-methoxy-1,5-naphthyridin-4-yl)oxy]phenyl]-1-(5-fluoro-3-methylpyridin-2-yl)-6-methyl-2-oxopyridine-3-carboxamide] as the molecule, how does the IC50 (Met) read?
A: ≤ 100 nM

Q: And the IC50 (AXL)?
A: ≤ 100 nM
